Results reported in paper PMC11489721 (Communications Chemistry, 2024).

Columns and labels:
[1] = target: T1, heterodimeric receptor (T1R2/T1R3) (Homo sapiens, UniProt Q7RTX0+Q8TE23); test: Competition binding with [14C]-sucrose as radioligand
T1 sequence (Q8TE23 20-839): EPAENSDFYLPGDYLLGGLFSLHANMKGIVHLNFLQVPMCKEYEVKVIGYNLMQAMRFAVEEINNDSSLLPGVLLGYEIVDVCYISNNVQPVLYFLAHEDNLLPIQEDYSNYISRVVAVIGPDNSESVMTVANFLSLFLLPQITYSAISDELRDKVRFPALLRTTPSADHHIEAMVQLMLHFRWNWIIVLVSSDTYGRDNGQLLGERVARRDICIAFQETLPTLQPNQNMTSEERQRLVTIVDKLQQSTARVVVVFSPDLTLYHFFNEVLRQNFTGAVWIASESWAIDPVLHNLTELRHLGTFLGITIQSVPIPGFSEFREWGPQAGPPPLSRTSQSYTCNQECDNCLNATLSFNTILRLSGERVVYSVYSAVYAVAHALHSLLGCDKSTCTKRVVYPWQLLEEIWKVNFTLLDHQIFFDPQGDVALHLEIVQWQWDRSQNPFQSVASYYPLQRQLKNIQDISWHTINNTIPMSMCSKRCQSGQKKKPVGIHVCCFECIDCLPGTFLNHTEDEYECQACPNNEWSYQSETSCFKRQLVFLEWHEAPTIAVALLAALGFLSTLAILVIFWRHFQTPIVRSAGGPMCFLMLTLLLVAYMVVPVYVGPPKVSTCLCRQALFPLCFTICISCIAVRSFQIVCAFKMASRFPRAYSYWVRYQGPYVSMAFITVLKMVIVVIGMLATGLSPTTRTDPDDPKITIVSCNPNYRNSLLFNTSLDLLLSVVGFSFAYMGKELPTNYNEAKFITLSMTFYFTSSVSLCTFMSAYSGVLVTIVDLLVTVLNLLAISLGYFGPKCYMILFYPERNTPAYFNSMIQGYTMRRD
T1 sequence (Q7RTX0 21-852): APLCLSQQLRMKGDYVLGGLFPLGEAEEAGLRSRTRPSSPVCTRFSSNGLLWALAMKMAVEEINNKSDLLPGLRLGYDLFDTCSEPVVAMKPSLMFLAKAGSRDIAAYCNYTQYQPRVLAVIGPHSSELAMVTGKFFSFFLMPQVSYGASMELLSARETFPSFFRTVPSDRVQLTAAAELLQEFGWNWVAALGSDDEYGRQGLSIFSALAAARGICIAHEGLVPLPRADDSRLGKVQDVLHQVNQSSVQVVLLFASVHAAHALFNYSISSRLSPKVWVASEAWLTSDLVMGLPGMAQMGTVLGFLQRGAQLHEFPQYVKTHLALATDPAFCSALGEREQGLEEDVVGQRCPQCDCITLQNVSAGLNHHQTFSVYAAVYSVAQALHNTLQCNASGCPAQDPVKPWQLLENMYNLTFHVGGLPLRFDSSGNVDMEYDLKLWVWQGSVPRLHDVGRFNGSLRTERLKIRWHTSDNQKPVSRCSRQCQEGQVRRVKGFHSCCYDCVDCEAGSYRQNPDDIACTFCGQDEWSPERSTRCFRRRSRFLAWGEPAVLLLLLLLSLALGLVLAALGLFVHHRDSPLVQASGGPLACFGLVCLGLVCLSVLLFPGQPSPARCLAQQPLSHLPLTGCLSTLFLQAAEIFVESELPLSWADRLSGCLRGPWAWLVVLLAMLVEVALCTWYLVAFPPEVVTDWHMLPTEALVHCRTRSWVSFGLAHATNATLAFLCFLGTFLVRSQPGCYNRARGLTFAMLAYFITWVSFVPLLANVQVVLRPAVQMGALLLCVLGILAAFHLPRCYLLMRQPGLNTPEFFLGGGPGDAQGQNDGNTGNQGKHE

[2] = target: human T1R2/T1R3 sweet taste receptor; details: HEK293 stably expressing T1R2/T1R3, FLIPR calcium mobilization; cited from earlier work
[3] = target: T2, heterodimeric receptor (T1R2/T1R3), TMD3 binding site (Homo sapiens, UniProt Q7RTX0+Q8TE23); test: Competition binding with [3H]-lactisole as radioligand; details: for Ki: radiolabeled ligand lactisole
T2 sequence (Q8TE23 20-839): T1 sequence (Q8TE23 20-839)
T2 sequence (Q7RTX0 21-852): T1 sequence (Q7RTX0 21-852)

[4] = target: T3, heterodimeric receptor (T1R2/T1R3), TMD2 binding site (Homo sapiens, UniProt Q7RTX0+Q8TE23); test: Competition binding with [3H]-Perillartine as radioligand; details: radioligand [3H]-Perillartine
T3 sequence (Q8TE23 20-839): T1 sequence (Q8TE23 20-839)
T3 sequence (Q7RTX0 21-852): T1 sequence (Q7RTX0 21-852)

[5] = target: T4, heterodimeric receptor (T1R2/T1R3), presumed VFD2 binding site (Homo sapiens, UniProt Q7RTX0+Q8TE23); test: Competition binding with [3H]-Rebaudioside B as radioligand
T4 sequence (Q8TE23 20-839): T1 sequence (Q8TE23 20-839)
T4 sequence (Q7RTX0 21-852): T1 sequence (Q7RTX0 21-852)

COc1ccc(CCC(=O)c2c(O)cc(O[C@@H]3O[C@H](CO)[C@@H](O)[C@H](O)[C@H]3O[C@@H]3O[C@@H](C)[C@H](O)[C@@H](O)[C@H]3O)cc2O)cc1O [NHDC, Neohesperidin Dihydrochalcone]
Ki [1]: 13600 µM | EC50 [2]: 10.2 µM | Ki ([3]; Ki (mM), TMD3 binding, Table 4): 0.33 mM | Ki ([3]; Ki): 0.334 mM | Competitive inhibition with lactisole ([3]; radioligand [3H]-lactisole): inhibition | Competitive inhibition with perillartine [4]: high levels of inhibition | Ki [5]: 63400 µM | Competitive inhibition with RebB ([5]; radioligand [3H]-Rebaudioside B): positive inhibition
